Laboratory results reported in patent US20180106782A1, “HIGH THROUGHPUT CARDIOTOXICITY SCREENING PLATFORM” (The Board of Trustees of the Leland Stanford Junior …, priority 2016, published 2018).

Columns and labels:
μpatterned hiPSC-CMs [1] = assay: movement of LifeAct-labeled myofibrils in beating μpatterned hiPSC-CMs (cross-correlation, Ncorr); format: cell-based, human; settings: for aδ (temporal asynchronicity) / d (displacement) / VR (peak velocity of relaxation) / VC (peak velocity of contraction) / aθ (spatial asynchronicity): LifeAct, single cell
Description: We fluorescently labeled actin with LifeAct in live hiPSC-CMs to image myofibrils and sarcomeres as described before. (Ribeiro 2015a) For this effect, we incubated hiPSC-CMs with the adenovirus rAV CAG-LifeAct-TagRFP (Ibidi; 1×10^5 IU/mL in cell-culture medium) overnight at 37° C. in a humid 5% CO2 atmosphere. We then washed cells once with PBS at 37° C. and added new medium. We observed actin labeled in sarcomeres after 2 days of adding the adenovirus to the culture medium. To induce contractile changes in hiPSC-CMs, we added drugs known to affect CM contractile machinery to the culture medium. We analyzed the mechanical output of cells after adding drugs. […] We exposed single cells to concentrations of 0.1 μM and then 1 μM of isoproterenol (Sigma, Saint Louis, Mo.) to test how the contractile activity of each cell varied after adding different amounts of isoproterenol to the medium. Omecamtiv mecarbil (Adooq Bioscience, Irvine, Calif.) was also added to the cell culture medium at 10 nM or 0.1 μM to detect different variations in the contractile response of hiPSC-CMs after adding one of these concentrations. We acquired videos of single beating hiPSC-CMs imaged with differential interference contrast microscopy at frame rates higher than 30 fps for a time between 4 and 10 s. We used MATLAB (R2014b version, Mathworks) to convert pixels of each frame to microns. Zeiss files (.czi) contained information on the pixel dimensions and were imported into MATLAB using the Bioformats package. ([…] 2010) We also confirmed the software calibration with calibration slides (Electron Microscopy Sciences). For each video of a beating single cell, we selected a region of interest (ROI) around the borders of the cell and analyzed average displacements within this ROI (FIG. 1B). For this purpose, we selected a baseline frame, within all the frames of the video, which represented the relaxed state of the cell and calculated average displacement within the ROI for the remaining frames relative to the baseline frame. As noted bellow, this procedure was automated. We then calculated displacements from microscopy videos with cross-correlation approaches: digital image correlation (DIC) and particle image velocimetry (PIV) approaches. […] Cross-correlation is done between sub-blocks of the image and the highest correlation indicates the maximum likelihood that blocks match. We tested the following cross-correlation algorithms: PIVIab, ImageJ PIV (Tseng 2012) and Ncorr. PIVIab and Ncorr were written in MATLAB, while ImageJ PIV is a plugin for ImageJ (NIH). Ncorr generally performs better, but uses more computational time. (Blaber 2015) We measured two parameters of asynchronicity of contractile movement within the ROI: spatial asynchronicity (aθ) of contractile movement and temporal asynchronicity (aδ) of contractile movement. Spatial synchronicity occurs when the different regions of the cell move along the same directions and temporal synchronicity occurs when all the regions of the cell move at the same time. To calculate aθ, we first computed the direction of movement (θ) for every movement vector of different regions i inside the ROI (FIG. 1B) at each frame as defined by The second approach performed better for analyzing sarcomere lengths in videos of LifeAct labeled beating cells. This approach was applied to different frames in a video to determine how the different properties measure with traction force microscopy or from cell movement related to sarcomere size, movement and orientation during the contractile cycle. Most of the tested approaches relied on successful skeletonization of each frame, which may not be perfect due to noise or inconsistent illumination. To quantitatively compare different skeletons from different frames in a video, we generated a master skeleton based on the skeletons generated from all frames. […]

CMs = settings: 0.1 μM isoproterenol (Butler 2015); cited from earlier work
hiPSC-CMs = settings: 1 μM isoproterenol (Yokoo 2009); cited from earlier work
μpatterned hiPSC-CMs [2] = assay: movement of LifeAct-labeled myofibrils in beating μpatterned hiPSC-CMs (cross-correlation, Ncorr); format: cell-based, human; settings: 1 μM and 10 nM omecamtiv mecarbil (FIG. 11)

## CC(C)NCC(O)c1ccc(O)c(O)c1 (stereo not shown) [isoproterenol]
μpatterned hiPSC-CMs [1]; ISO 0.1 (μM per FIG. 4), no ISO: 0.1
  aδ (temporal asynchronicity): 0.31 s
μpatterned hiPSC-CMs [1]; ISO 0.1 (μM per FIG. 4), no ISO: 1.22
  d (displacement): 1.43 μm
μpatterned hiPSC-CMs [1]; ISO 0.1 (μM per FIG. 4), no ISO: 2.54
  VR (peak velocity of relaxation): 3.45 μm/s
μpatterned hiPSC-CMs [1]; ISO 0.1 (μM per FIG. 4), no ISO: 2.63
  VC (peak velocity of contraction): 4.78 μm/s
μpatterned hiPSC-CMs [1]; ISO 0.1 (μM per FIG. 4), no ISO: 55.4
  aθ (spatial asynchronicity): 19.5 °
μpatterned hiPSC-CMs [1]; ISO 1 (μM per FIG. 4), no ISO: 0.1
  aδ (temporal asynchronicity): 0.28 s
μpatterned hiPSC-CMs [1]; ISO 1 (μM per FIG. 4), no ISO: 1.22
  d (displacement): 0.71 μm
μpatterned hiPSC-CMs [1]; ISO 1 (μM per FIG. 4), no ISO: 2.54
  VR (peak velocity of relaxation): 2.05 μm/s
μpatterned hiPSC-CMs [1]; ISO 1 (μM per FIG. 4), no ISO: 2.63
  VC (peak velocity of contraction): 2.02 μm/s
μpatterned hiPSC-CMs [1]; ISO 1 (μM per FIG. 4), no ISO: 55.4
  aθ (spatial asynchronicity): 20.8 °
CMs
  inotropic and chronotropic response in CMs: positive inotropic and positive chronotropic responses
hiPSC-CMs
  beat rate: increase
  mechanical output: decrease

## COC(=O)N1CCN(Cc2cccc(NC(=O)Nc3ccc(C)nc3)c2F)CC1 [omecamtiv mecarbil]
μpatterned hiPSC-CMs [1]; 0.1 μM omecamtiv mecarbil, acute, single cell (FIG. 6B)
  acute changes in sarcomere organization and movement: oscillatory contractions of sarcomeres and overlap between sarcomeres
μpatterned hiPSC-CMs [1]; 0.1 μM omecamtiv mecarbil, chronic, 2 minutes after adding (FIG. 6C)
  chronic effects on the organization of myofibrils: myofibril damaging
μpatterned hiPSC-CMs [1]; 0.1 μM omecamtiv mecarbil, single cell (FIG. 6F)
  acute values of dmax and br from myofibril movement: slightly increased
μpatterned hiPSC-CMs [1]; 0.1 μM omecamtiv mecarbil, single cell (FIG. 6G)
  acute VC and VR from myofibril movement: no considerable acute variations
μpatterned hiPSC-CMs [1]; OM 0.1 μM (FIG. 6), row 'acute', no OM: 0.05
  aδ (temporal asynchronicity): 0.89 s
μpatterned hiPSC-CMs [1]; OM 0.1 μM (FIG. 6), row 'acute', no OM: 1.03
  d (displacement): 0.25 μm
μpatterned hiPSC-CMs [1]; OM 0.1 μM (FIG. 6), row 'acute', no OM: 2.2
  VR (peak velocity of relaxation): 0.51 μm/s
μpatterned hiPSC-CMs [1]; OM 0.1 μM (FIG. 6), row 'acute', no OM: 2.25
  VC (peak velocity of contraction): 0.54 μm/s
μpatterned hiPSC-CMs [1]; OM 0.1 μM (FIG. 6), row 'acute', no OM: 36.3
  aθ (spatial asynchronicity): 40.9 °
μpatterned hiPSC-CMs [1]; OM 0.1 μM (FIG. 6), row 'chronic', no OM: 0.05
  aδ (temporal asynchronicity): 0.88 s
μpatterned hiPSC-CMs [1]; OM 0.1 μM (FIG. 6), row 'chronic', no OM: 1.03
  d (displacement): 0.93 μm
μpatterned hiPSC-CMs [1]; OM 0.1 μM (FIG. 6), row 'chronic', no OM: 2.2
  VR (peak velocity of relaxation): 1.63 μm/s
μpatterned hiPSC-CMs [1]; OM 0.1 μM (FIG. 6), row 'chronic', no OM: 2.25
  VC (peak velocity of contraction): 2.2 μm/s
μpatterned hiPSC-CMs [1]; OM 0.1 μM (FIG. 6), row 'chronic', no OM: 36.3
  aθ (spatial asynchronicity): 17.1 °
μpatterned hiPSC-CMs [2]
  myofibril damage at other concentrations: Such level of damage was also observed
